Measurements as given in paper PMC3433420 (PLoS ONE, 2012).
Like-named read-outs stand apart in the source and are kept apart here. Residues, ends and D or L forms follow the SMILES beside them.

How the values were obtained:
[1] = target: T1, SH2D1A SH2 domain (Homo sapiens, UniProt O60880); experiment: FP saturation binding assay
T1 sequence (O60880 6-104 limits assumed): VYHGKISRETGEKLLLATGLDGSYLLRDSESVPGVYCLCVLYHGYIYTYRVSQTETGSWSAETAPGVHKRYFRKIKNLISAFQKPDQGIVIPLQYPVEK

[2] = target: T2, PLCG1-NC tandem SH2 domains (Homo sapiens, UniProt P19174); experiment: FP saturation binding assay; details: Protein PLCG1-NC; FP saturation binding, high-confidence ErbB interactions; mean over replicate hits
T2 construct: the tandem protein was included in our analysis with all internal amino acids linking the domains; 6X His; thioredoxin; made in house; host or cells: E. coli BL21(DE3)pLysS
T2 sequence (P19174 550-756 limits assumed): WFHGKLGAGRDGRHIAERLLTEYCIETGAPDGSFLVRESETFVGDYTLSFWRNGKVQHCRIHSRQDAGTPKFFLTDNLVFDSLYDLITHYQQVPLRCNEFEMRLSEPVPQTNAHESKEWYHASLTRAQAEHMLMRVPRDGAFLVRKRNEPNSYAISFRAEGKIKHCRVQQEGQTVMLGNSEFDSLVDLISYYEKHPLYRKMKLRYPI

[3] = target: T3, GRAP2 SH2 domain (Homo sapiens, UniProt O75791); experiment: FP saturation binding assay; details: for share of the ErbB1 binding FE for GRAP2: free energy from FP KDs as percentage of total receptor recruitment (Figure S16)
T3 sequence (O75791 58-149 limits assumed): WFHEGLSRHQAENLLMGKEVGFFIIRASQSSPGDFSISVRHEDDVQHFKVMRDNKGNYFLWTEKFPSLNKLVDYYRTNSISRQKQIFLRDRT

[4] = target: T4, HSH2D SH2 domain (Homo sapiens, UniProt Q96JZ2); experiment: FP saturation binding assay
T4 sequence (Q96JZ2 34-125 limits assumed): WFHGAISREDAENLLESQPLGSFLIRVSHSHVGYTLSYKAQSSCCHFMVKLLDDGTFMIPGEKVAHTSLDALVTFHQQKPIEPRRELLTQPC

[5] = target: GRB2 SH2 domain (Homo sapiens, UniProt P62993); experiment: FP saturation binding assay; details: for share of the ErbB1 binding FE for GRB2: free energy from FP KDs as percentage of total receptor recruitment (Figure S16)
[6] = target: T5, PTPN11-NC tandem SH2 domains (Homo sapiens, UniProt Q06124); experiment: FP saturation binding assay
T5 sequence (Q06124 6-216 limits assumed): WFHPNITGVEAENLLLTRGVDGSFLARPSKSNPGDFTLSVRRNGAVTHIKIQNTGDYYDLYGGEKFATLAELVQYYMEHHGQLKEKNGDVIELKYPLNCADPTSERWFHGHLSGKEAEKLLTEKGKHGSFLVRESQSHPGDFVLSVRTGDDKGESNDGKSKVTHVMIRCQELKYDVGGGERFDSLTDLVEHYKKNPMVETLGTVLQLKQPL

[7] = target: T6, PTPN11-N SH2 domain (Homo sapiens, UniProt Q06124); experiment: FP saturation binding assay
T6 sequence (Q06124 6-102 limits assumed): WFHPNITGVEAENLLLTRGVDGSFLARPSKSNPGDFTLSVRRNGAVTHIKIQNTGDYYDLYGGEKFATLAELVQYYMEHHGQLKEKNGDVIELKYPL

[8] = target: T7, SH2D1B SH2 domain (Homo sapiens, UniProt O14796); experiment: FP saturation binding assay
T7 sequence (O14796 5-101 limits assumed): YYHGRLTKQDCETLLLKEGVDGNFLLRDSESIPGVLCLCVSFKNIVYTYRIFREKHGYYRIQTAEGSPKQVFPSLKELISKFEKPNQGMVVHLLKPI

[9] = target: T8, RASA1-N SH2 domain (Homo sapiens, UniProt P20936); experiment: FP saturation binding assay
T8 sequence (P20936 181-272 limits assumed): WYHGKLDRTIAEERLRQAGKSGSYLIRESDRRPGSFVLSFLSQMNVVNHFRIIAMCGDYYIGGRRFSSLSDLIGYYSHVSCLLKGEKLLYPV

[10] = target: T9, LCK SH2 domain (Homo sapiens, UniProt P06239); experiment: FP saturation binding assay; details: protein LCK; high-confidence ErbB interactions; mean of replicate hits
T9 construct: 93 SH2 and 2 PTB domain-containing constructs; 6X His; thioredoxin; made in house; host or cells: E. coli BL21(DE3)pLysS
How it was run: (§1)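 KD values come from least-squares fits of fluorescence polarization (ex 530, em 555 nm), corrected for thioredoxin nonspecific binding and plate baseline, with outliers pruned. Fixed 10 nM labeled peptide met a 0.002–10 µM protein series for 20 min at room temperature in HEPES/KCl/Tween/DTT buffer, pH 7.8.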

[11] = target: T10, PTK6 SH2 domain (Homo sapiens, UniProt Q13882); experiment: FP saturation binding assay; details: protein PTK6; high-confidence ErbB interactions; mean of replicate hits
T10 construct: from the PTK6 SH2 domain; 6X His; thioredoxin; made in house; host or cells: E. coli BL21(DE3)pLysS
How it was run: as §1

[12] = target: T11, PIK3R3-C SH2 domain (Homo sapiens, UniProt Q92569); experiment: biochemical; type: binding; details: protein PIK3R3-C; high-confidence ErbB interactions; mean of replicate hits
T11 construct: thioredoxin; made in house; host or cells: E. coli BL21(DE3)pLysS

[13] = target: SH2 and PTB domains; details: ref Jones et al. 2006 / Kaushansky et al. Mol Biosys 2008 / Kaushansky et al. Chem and Biol 2008, cited from earlier work
From the text: Supplement pone.0044471.s022.xlsx, sheet "Most recent PM interactions" | column: Kd || Supplement pone.0044471.s022.xlsx, sheet "All original PM interactions" | column: Kd

Chain of GRB2 SH2 domain (P62993 60-152 limits assumed): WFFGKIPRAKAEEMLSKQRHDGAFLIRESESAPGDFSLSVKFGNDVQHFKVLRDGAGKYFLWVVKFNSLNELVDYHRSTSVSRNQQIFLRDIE
T10 sequence (Q13882 78-170 limits assumed): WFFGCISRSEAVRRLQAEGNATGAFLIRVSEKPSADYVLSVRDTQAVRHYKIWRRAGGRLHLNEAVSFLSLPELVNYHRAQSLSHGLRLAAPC
T9 sequence (P06239 127-224 limits assumed): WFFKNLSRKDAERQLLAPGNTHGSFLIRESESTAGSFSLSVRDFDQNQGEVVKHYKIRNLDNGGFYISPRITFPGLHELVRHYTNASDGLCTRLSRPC

Row | share of the ErbB1 binding FE for GRB2 [5] [%] | share of the ErbB1 binding FE for GRAP2 [3] [%] | Molecule | Kd [3] [nM] | Kd [4] [nM] | Kd ([13]; protein ABL2) [nM] | Kd ([13]; protein GRB2) [nM] | Kd ([13]; protein ITK) [nM] | Kd ([13]; protein NCK2) [nM] | Kd ([13]; protein PIK3R1-NC) [nM] | Kd ([13]; protein PIK3R2-N) [nM] | Kd ([13]; protein PIK3R2-NC) [nM] | Kd ([13]; protein PIK3R3-N) [nM] | Kd ([13]; protein PIK3R3-NC) [nM] | Kd ([13]; protein RASA1-N) [nM] | Kd ([13]; protein VAV2) [nM] | other results
1 | – | – | CC(C)C[C@H](NC(=O)[C@H](Cc1ccc(OP(=O)(O)O)cc1)NC(=O)[C@H](CCC(=O)O)NC(=O)[C@@H]1CCCN1C(=O)[C@H](CC(N)=O)NC(=O)CN)C(=O)N[C@@H](CC(N)=O)C(=O)N[C@H](C(=O)N[C@H](C(=O)N[C@@H](CCC(N)=O)C(=O)N1CCC[C@H]1C(=O)N[C@H](C(=O)N[C@@H](CC(=O)O)C(=O)O)[C@@H](C)O)C(C)C)[C@@H](C)O [ErbB1 1138 13-mer] (HELM PEPTIDE1{G.N.P.E.[O=C([C@H](Cc1ccc(OP(=O)(O)O)cc1)N[*:1])[*:2]].L.N.T.V.Q.P.T.D}$$$$V2.0) | 4820 | 3410 | – | – | – | – | – | – | – | – | – | – | – | Kd [1]: 9440 nM; Kd [2]: 5350 nM
2 | – | – | CC(C)C[C@H](NC(=O)[C@@H]1CCCN1)C(=O)N[C@H](C(=O)N[C@@H](CS)C(=O)N[C@@H](CO)C(=O)N1CCC[C@H]1C(=O)N[C@@H](CCC(N)=O)C(=O)N1CCC[C@H]1C(=O)N[C@@H](CCC(=O)O)C(=O)N[C@@H](Cc1ccc(OP(=O)(O)O)cc1)C(=O)N[C@H](C(=O)N[C@@H](CC(N)=O)C(=O)N[C@@H](CCC(N)=O)C(=O)N1CCC[C@H]1C(=O)N[C@@H](CC(=O)O)C(=O)N[C@H](C(=O)N[C@@H](CCCNC(=N)N)C(=O)N[C@@H](CC(=O)O)C(=O)O)C(C)C)C(C)C)[C@@H](C)O [ErbB2 1139 18-mer] (HELM PEPTIDE1{P.L.T.C.S.P.Q.P.E.[O=C([C@H](Cc1ccc(OP(=O)(O)O)cc1)N[*:1])[*:2]].V.N.Q.P.D.V.R.D}$$$$V2.0) | 560 | 2820 | – | – | – | – | – | – | – | – | – | – | – | Kd [5]: 1380 nM
3 | – | – | CC[C@H](C)[C@H](NC(=O)[C@@H]1CCCN1C(=O)[C@@H](NC(=O)[C@H](CCCCN)NC(=O)[C@H](C)NC(=O)[C@H](CCC(=O)O)NC(=O)[C@H](CO)NC(=O)[C@H](Cc1ccc(OP(=O)(O)O)cc1)NC(=O)[C@H](CC(C)C)NC(=O)[C@H](CC(C)C)NC(=O)[C@H](CCC(N)=O)NC(=O)[C@@H](N)CCCCN)[C@@H](C)O)C(=O)N[C@@H](CC(=O)O)C(=O)O [ErbB3 868 13-mer] (HELM PEPTIDE1{K.Q.L.L.[O=C([C@H](Cc1ccc(OP(=O)(O)O)cc1)N[*:1])[*:2]].S.E.A.K.T.P.I.D}$$$$V2.0) | – | – | – | – | – | – | – | – | – | – | – | – | – | Kd [6]: 3680 nM; Kd [7]: 3610 nM; Kd [8]: 4960 nM
4 | – | – | CC(C)C[C@H](NC(=O)[C@H](CO)NC(=O)[C@H](Cc1c[nH]cn1)NC(=O)[C@H](CC(N)=O)NC(=O)[C@H](Cc1c[nH]c2ccccc12)NC(=O)[C@H](Cc1ccc(OP(=O)(O)O)cc1)NC(=O)[C@H](CC(=O)O)NC(=O)[C@@H]1CCCN1C(=O)[C@H](CC(N)=O)NC(=O)[C@@H](N)CC(=O)O)C(=O)N1CCC[C@H]1C(=O)N1CCC[C@H]1C(=O)N[C@@H](CC(=O)O)C(=O)O [ErbB4 1242 13-mer] (HELM PEPTIDE1{D.N.P.D.[O=C([C@H](Cc1ccc(OP(=O)(O)O)cc1)N[*:1])[*:2]].W.N.H.S.L.P.P.D}$$$$V2.0) | – | 7370 | – | – | – | – | – | – | – | – | – | – | – | Kd [9]: 5030 nM; Kd [10]: 4460 nM; Kd [11]: 2760 nM; Kd [12]: 8290 nM
5 | 50 | 50 | GNPEpYLNTVQPTd [ErbB1 pY1138] | – | – | 85 | 720 | 1760 | 330 | 1570 | 760 | 860 | 840 | 1690 | 390 | 370 | Kd ([13]; protein SHC1-PTB): 130 nM; Kd ([13]; protein ZAP70-NC): 1140 nM
6 | 50 | 50 | PVPEpYINQSVPKd [ErbB1 pY1092] | – | – | 150 | 200 | 220 | 1100 | 670 | 450 | 1410 | 510 | 1020 | 180 | 540 | Kd ([13]; protein ABL1): 920 nM; Kd ([13]; protein BLK): 300 nM; Kd ([13]; protein GRB10): 1300 nM; Kd ([13]; protein PIK3R1-N): 1080 nM; Kd ([13]; protein PLCG2-NC): 1630 nM; Kd ([13]; protein SRC): 1790 nM; Kd ([13]; protein SYK-C): 1920 nM; Kd ([13]; protein SYK-NC): 910 nM; Kd ([13]; protein YES1): 340 nM
